# Test results published in patent publication US10301520B2, “Compositions of hydrochlorofluoroolefins” (Arkema Inc., priority 2008, dated 2019).
# How the values were obtained:
# [1] = Degreasing of lubricant oil from stainless steel plates; conditions: immersion 5 minutes at ambient temperature
# Protocol: (§1) A small quantity of commercial lubricant oil was deposited on the surface of several 30×10 mm stainless steel plates. The mass of each plate was determined with a precision of 0.1 mg before and after deposition. The difference between these two values corresponds to the initial mass of lubricant.
# (§2) Once the initial mass is obtained, each steel plate is immersed in a beaker filled with a cleaning composition at ambient temperature for 5 minutes. Thereafter, the steel plates were removed from the beaker and dried in the open air for 5 minutes. Thereafter, the mass of each plate was determined to evaluate the percentage of lubricant oil removed during the test.
# [2] = Cleaning of silicone oil from stainless steel plates; conditions: silicon oil; immersion 5 minutes at ambient temperature
# Protocol: as §1, §2
# A procedure similar to Example 5 was followed using silicon oil. The results were summarized as in Table 6
# [3] = Cleaning of mineral oil from stainless steel plates; conditions: immersion 5 minutes at ambient temperature
# Protocol: as §1, §2
# A procedure similar to Example 5 was followed using commercial natural mineral oil for high pressure.
# [4] = Evaporator cleaning (flushing); conditions: flushing 10 minutes at ambient temperature; compared with HFC-245fa
# Protocol: An evaporator from a refrigeration system contains a known quantity of 300 SUS mineral oil. The evaporator could be flushed with flushing agent for 10 minutes at ambient temperature. Following the flushing period, the quantity of oil and residue removed would be determined. This could be done by measuring the weight of the evaporator following flushing and evacuation of flushing agent and/or by stripping the flushing agent from the removed oil and residue and weighing that. HFC-245fa and trans-HCFO-1233zd would be used as flushing agents.
# [5] = Vapor pressure in high-pressure cell; assay type: physicochemical
# Protocol: A high-pressure cell equipped with a certified pressure gauge was evacuated by a vacuum pump to remove all permanent gases. 14.21 g of 1233xf and 9.17 g of E-1233zd were then loaded into the cell individually by a stainless steel syringe pump. The high-pressure cell was placed in an orbital shaker in which temperature was controlled at the accuracy of 0.1° C. […] At each temperature the pressure was measured after one hour in order to achieve equilibrium. The accuracy of the pressure gauge was + or −0.1 psia. […] The measured pressure can be seen in Table 1.
# [6] = Flash point, ASTM D3278-96; assay type: physicochemical
# From the text: Flammability of a solvent is related to safety of its use. For most application, it is desirable that a solvent have as low a flammable as possible. The flammability of E-1233zd was characterized by flash point measured according to ASTM D3278-96. The flash point of TDCE and HCFC 225 were used as comparative examples.
# [7] = Defluxing of solder flux from stainless steel plates
# Protocol: A small quantity of commercial solder flux was deposited on the surface of several 30×10 mm stainless steel plates. The mass of each plate was determined with a precision of 0.1 mg before deposition and corresponds to the tare. The plates were heated to 250° C. until fusion of the metal from the solder flux (between 1 and 2 min.). The metal could then be easily removed from the plates and only the flux remained on them.
# The plates prepared with this method were dried in the open air at ambient temperature for 16 hours. The mass of each dried plate was determined with a precision of 0.1 mg before and after deposition. The difference between these two values corresponds to the initial mass of flux.
# Once the initial mass was obtained, half of the steel plates are immersed in a beaker filled with a cleaning composition at ambient temperature for 30 minutes and the other half of the plates immersed in a beaker filled with the cleaning solution for 60 minutes. After the immersion, the steel plates were removed from the beakers and dried in the open air for 5 minutes. Thereafter, the mass of each plate was determined to evaluate the percentage of flux removed during the test.
# [8] = AMES testing; assay type: cell-based; conditions: compared with the cis isomer
# From the text: A major portion of the HCFO-1233zd of the present invention is the trans isomer. […] A preferred ratio of trans and cis isomers of HCFO-1233zd is less than about 30% weight of the combination of the cis isomer, and preferably less than about 10% of the cis isomer. The most preferred ratio is less than about 3% of the cis isomer. […] The preferred Kauri-butanol value of the composition of the present invention is above 15 and preferably above 20.
# [9] = Residual flushing agent after drying of evaporator; conditions: 25 °C, air flow, 10 minutes drying; compared with trans-HCFO-1233zd
# Protocol: To a clean evaporator from an air conditioning, a measured quantity of flushing liquid would be added to simulate conditions following an open-loop evaporator flushing procedure. The evaporator would be maintained at 25° C. with a slow flow of air passing through the evaporator to assist in drying. The evaporator would be dried such as for 10 minutes and then weighed to measure the quantity of flushing agent remaining.
molecule,measurement,setting,value
"FC(F)(F)/C=C/Cl [E-1233zd, 1-chloro-3,3,3-trifluoropropene]",Removal rate,[1],99.10%
same,Removal rate,[2],99.10%
same,Removal rate,[3],57.2%
same,Percentage of oil and residue removed during flushing,[4],greater percentage
same,Pressure,[5]; 5.0 °C,9.1 psia
same,Pressure,[5]; 15.0 °C,13.7 psia
same,Pressure,[5]; 18.5 °C,14.7 psia
same,Pressure,[5]; 25.0 °C,19.7 psia
same,Pressure,[5]; 35.0 °C,27.5 psia
same,Pressure versus atmospheric pressure,[5]; temperature range 5 to 15 °C,lower than atmospheric
same,Flash point,[6],No
same,Removal rate for 30 mn,[7]; immersion 30 minutes at ambient temperature,36.04%
same,Removal rate for 60 mn,[7]; immersion 60 minutes at ambient temperature,26.24%
same,Genotoxicity in AMES testing,[8],significantly lower genotoxicity
"C=C(Cl)C(F)(F)F [1233xf, 2-chloro-3,3,3-trifluoropropene, reference compound]",Pressure,[5]; 5.0 °C,11.5 psia
same,Pressure,[5]; 15.0 °C,16.8 psia
same,Pressure,[5]; 18.5 °C,18.3 psia
same,Pressure,[5]; 25.0 °C,23.8 psia
same,Pressure,[5]; 35.0 °C,32.7 psia
same,Pressure versus atmospheric pressure,[5]; temperature range 15 to 25 °C,> 14.7 psia
"Cl/C=C/Cl [TDCE, trans-1,2-dichloroethylene]",Removal rate,[3],88.51%
same,Flash point,[6],Yes
"FC(F)(F)/C=C/Cl [cis-HCFO-1233zd, 1-chloro-3,3,3-trifluoropropene]",Quantity of flushing agent remaining after drying,[9],more cis-HCFO-1233zd would remain
"CC(F)(Cl)Cl [HCFC 141b, 1,1-dichloro-1-fluoroethane, reference compound]",Removal rate,[1],99.60%
same,Removal rate,[2],98.40%
COC(C)=O [Methyl acetate],Removal rate,[3],31.67%
dichloropentafluoropropane [HCFC 225],Flash point,[6],No
